Experimental data reported in paper PMC9848300, “Discovery of novel enasidenib analogues targeting inhibition of mutant isocitrate dehydrogenase 2 as antileukaemic agents” (Journal of Enzyme Inhibition and Medicinal Chemistry, 2023).

Columns and labels:
Format in all cases: cell-based
[1] = tested on: K-562; experiment: NCI 60 antitumor screening (single dose / five doses); conditions: Homo sapiens, K562; for inhibition at 10 µM: K-562 (leukaemia), single dose 10 μM, read-out: Growth inhibition percentage (GI %)
[2] = tested on: SR; experiment: as above; conditions: Homo sapiens; for inhibition at 10 µM: SR (leukaemia), single dose 10 μM, read-out: Growth inhibition percentage (GI %)
[3] = tested on: EKVX; experiment: as above; conditions: Homo sapiens; EKVX (non-small cell lung cancer), single dose 10 μM; read-out: Growth inhibition percentage (GI %)
[4] = tested on: HCC-2998; experiment: NCI 60 antitumor screening (single dose); conditions: Homo sapiens; HCC-2998 (colon cancer), single dose 10 μM; read-out: Growth inhibition percentage (GI %)
Description: (§1) Initially, the anticancer effects of target compounds have been assessed at a single (10 μM) dose. The obtained data have been reported as mean-graph of the percent growth (G%) of the treated cancer cells. Percentage growth inhibition (GI%) is calculated (100 − G%) and pronounced in Table 1. […] Target compounds in series (III) with manipulated linkers disclosed lower potency. Superiorly, eight s-triazine derivatives from the three series (6a, 6c, 6d, 7a, 7g, 7i, 7l, and 8b) have shown potent broad-spectrum anticancer activity against most the examined cell lines, whereas most of the remaining triazine derivatives, 20 derivatives, have exerted selective anti-proliferative actions towards certain cancer cell lines (Supplementary).
(§2) The antitumor screening was performed for 60 human cancer cell lines under the protocol of NCI (www.dtp.nci.nih.gov), the Drug Evaluation Branch, Bethesda, MD. All submitted compounds were nominated based on the degree of structural diversity and computer modelling techniques for evaluation of their anticancer activity. The screening process for antineoplastic activity passes through two successive levels, starting with the assessment of target compounds at a single dose of 10 μM against 60 cancer cell lines on nine types of human tumours. These experiments were done on a triplicate following. The output from the single‐dose screening was covered as a mean graph, and then, analysed by the COMPARE program. Finally, the compounds which disclosed subpanel cancer cell growth (G %) equal to or less than 10% in at least eight cancer cell lines get to pass the assessment against the 60 cell lines at five doses (0.01–100 μM). By using GraphPad Prism version 9.0 (Graphpad Software Inc., La Jolla, CA), GI50, TGI, as well as LC50 dose‐response parameters were computed and presented for each compound (Supplementary information)[55–57].

[5] = tested on: HOP-62; experiment: NCI 60 antitumor screening (single dose); conditions: Homo sapiens; HOP-62 (non-small cell lung cancer), single dose 10 μM; read-out: Growth inhibition percentage (GI %)
Description: as §1, §2

[6] = tested on: HS 578T; experiment: NCI 60 antitumor screening (single dose); conditions: Homo sapiens; HS 578T (breast cancer), single dose 10 μM; read-out: Growth inhibition percentage (GI %)
Description: as §1, §2

[7] = tested on: KM 12; experiment: NCI 60 antitumor screening (single dose); conditions: Homo sapiens, KM12; KM 12 (colon cancer), single dose 10 μM; read-out: Growth inhibition percentage (GI %)
Description: as §1, §2

[8] = tested on: NCI-H226; experiment: NCI 60 antitumor screening (single dose); conditions: Homo sapiens; NCI-H226 (non-small cell lung cancer), single dose 10 μM; read-out: Growth inhibition percentage (GI %)
Description: as §1, §2

[9] = tested on: NCI-H460; experiment: NCI 60 antitumor screening (single dose); conditions: Homo sapiens; NCI-H460 (non-small cell lung cancer), single dose 10 μM; read-out: Growth inhibition percentage (GI %)
Description: as §1, §2

[10] = tested on: OVCAR-3; experiment: NCI 60 antitumor screening (single dose); conditions: Homo sapiens; OVCAR-3 (ovarian cancer), single dose 10 μM; read-out: Growth inhibition percentage (GI %)
Description: as §1, §2

[11] = tested on: OVCAR-4; experiment: NCI 60 antitumor screening (single dose); conditions: Homo sapiens; OVCAR-4 (ovarian cancer), single dose 10 μM; read-out: Growth inhibition percentage (GI %)
Description: as §1, §2

[12] = tested on: OVCAR-5; experiment: NCI 60 antitumor screening (single dose); conditions: Homo sapiens; OVCAR-5 (ovarian cancer), single dose 10 μM; read-out: Growth inhibition percentage (GI %)
Description: as §1, §2

[13] = tested on: OVCAR-8; experiment: NCI 60 antitumor screening (single dose); conditions: Homo sapiens; OVCAR-8 (ovarian cancer), single dose 10 μM; read-out: Growth inhibition percentage (GI %)
Description: as §1, §2

[14] = tested on: PC-3; experiment: NCI 60 antitumor screening (single dose); conditions: Homo sapiens; PC-3 (prostate cancer), single dose 10 μM; read-out: Growth inhibition percentage (GI %)
Description: as §1, §2

[15] = tested on: SK-OV-3; experiment: NCI 60 antitumor screening (single dose); conditions: Homo sapiens; SK-OV-3 (ovarian cancer), single dose 10 μM; read-out: Growth inhibition percentage (GI %)
Description: as §1, §2

[16] = tested on: SNB-19; experiment: NCI 60 antitumor screening (single dose); conditions: Homo sapiens; SNB-19 (CNS cancer), single dose 10 μM; read-out: Growth inhibition percentage (GI %)
Description: as §1, §2

[17] = tested on: TK-10; experiment: NCI 60 antitumor screening (single dose); conditions: Homo sapiens; TK-10 (renal cancer), single dose 10 μM; read-out: Growth inhibition percentage (GI %)
Description: as §1, §2

[18] = tested on: U251; experiment: NCI 60 antitumor screening (single dose); conditions: Homo sapiens, U-251; U251 (CNS cancer), single dose 10 μM; read-out: Growth inhibition percentage (GI %)
Description: as §1, §2

[19] = tested on: COLO 205; experiment: NCI 60 antitumor screening (single dose / five doses); conditions: Homo sapiens; for inhibition at 10 µM: COLO 205 (colon cancer), single dose 10 μM, read-out: Growth inhibition percentage (GI %)
[20] = tested on: HCT-116; experiment: as above; conditions: Homo sapiens; for inhibition at 10 µM: HCT-116 (colon cancer), single dose 10 μM, read-out: Growth inhibition percentage (GI %)
[21] = tested on: SF-295; experiment: as above; conditions: Homo sapiens; for inhibition at 10 µM: SF-295 (CNS cancer), single dose 10 μM, read-out: Growth inhibition percentage (GI %)
[22] = tested on: LOX IMVI; experiment: as above; conditions: Homo sapiens; for inhibition at 10 µM: LOX IMVI (melanoma), single dose 10 μM, read-out: Growth inhibition percentage (GI %)
[23] = tested on: SK-MEL-2; experiment: as above; conditions: Homo sapiens; for inhibition at 10 µM: SK-MEL-2 (melanoma), single dose 10 μM, read-out: Growth inhibition percentage (GI %)
[24] = tested on: UACC-257; experiment: as above; conditions: Homo sapiens; UACC-257 (melanoma), single dose 10 μM; read-out: Growth inhibition percentage (GI %)
[25] = tested on: IGROV1; experiment: as above; conditions: Homo sapiens, IGROV-1; for inhibition at 10 µM: IGROV1 (ovarian cancer), single dose 10 μM, read-out: Growth inhibition percentage (GI %)
[26] = tested on: ACHN; experiment: as above; conditions: Homo sapiens; for inhibition at 10 µM: ACHN (renal cancer), single dose 10 μM, read-out: Growth inhibition percentage (GI %)
[27] = tested on: SN 12C; experiment: as above; conditions: Homo sapiens, SN12C; SN 12C (renal cancer), single dose 10 μM; read-out: Growth inhibition percentage (GI %)
[28] = tested on: T-47D; experiment: as above; conditions: Homo sapiens, T47D; for inhibition at 10 µM: T-47D (breast cancer), single dose 10 μM, read-out: Growth inhibition percentage (GI %)

SMILES: Brc1ccccc1/C=N/Nc1nc(N/N=C/c2ccccc2Br)nc(N2CCOCC2)n1 [compound 6b, 2,4-Bis[(E)-2-[(2-bromophenyl)methylidene]hydrazin-1-yl]-6-(morpholin-4-yl)-1,3,5-triazine]
- inhibition at 10 µM [1]: 5.94%
- inhibition at 10 µM [2]: 36.1%
- inhibition at 10 µM [3]: 19.8%
- inhibition at 10 µM [4]: 29.1%
- inhibition at 10 µM [5]: -8.36%
- inhibition at 10 µM [6]: -14.4%
- inhibition at 10 µM [7]: 10.9%
- inhibition at 10 µM [8]: 4.87%
- inhibition at 10 µM [9]: -2.92%
- inhibition at 10 µM [10]: 14.8%
- inhibition at 10 µM [11]: 3.79%
- inhibition at 10 µM [12]: -11.2%
- inhibition at 10 µM [13]: 3.39%
- inhibition at 10 µM [14]: 16%
- inhibition at 10 µM [15]: -13.9%
- inhibition at 10 µM [16]: -1.04%
- inhibition at 10 µM [17]: 0.58%
- inhibition at 10 µM [18]: 3.53%
- inhibition at 10 µM [19]: 13.9%
- inhibition at 10 µM [20]: 2.53%
- inhibition at 10 µM [21]: 14.5%
- inhibition at 10 µM [22]: -2.7%
- inhibition at 10 µM [23]: 3.71%
- inhibition at 10 µM [24]: -3.93%
- inhibition at 10 µM [25]: 10.3%
- inhibition at 10 µM [26]: 6.36%
- inhibition at 10 µM [27]: 1.16%
- inhibition at 10 µM [28]: 21%

SMILES: Brc1cccc(/C=N/Nc2nc(N/N=C/c3cccc(Br)c3)nc(N3CCOCC3)n2)c1 [compound 6c, 2,4-Bis[(E)-2-[(3-bromophenyl)methylidene]hydrazin-1-yl]-6-(morpholin-4-yl)-1,3,5-triazine]
- inhibition at 10 µM [1]: 85.5%
- GI50 ([1]; K-562, five doses (0.01–100 μM), read-out: GI50): 330 nM
- inhibition at 10 µM [2]: 92.1%
- GI50 ([2]; SR, five doses (0.01–100 μM), read-out: GI50): 160 nM
- inhibition at 10 µM [3]: 51%
- inhibition at 10 µM [4]: 68.5%
- inhibition at 10 µM [5]: 47.7%
- inhibition at 10 µM [6]: 33.8%
- inhibition at 10 µM [7]: 69.7%
- inhibition at 10 µM [8]: 56.7%
- inhibition at 10 µM [9]: 58.8%
- inhibition at 10 µM [10]: 57.5%
- inhibition at 10 µM [11]: 45.8%
- inhibition at 10 µM [12]: 27.6%
- inhibition at 10 µM [13]: 62.6%
- inhibition at 10 µM [14]: 63.5%
- inhibition at 10 µM [15]: 7.13%
- inhibition at 10 µM [16]: 22.1%
- inhibition at 10 µM [17]: 33.2%
- inhibition at 10 µM [18]: 57.3%
- inhibition at 10 µM [19]: 76.2%
- GI50 ([19]; COLO 205, five doses (0.01–100 μM), read-out: GI50): 1240 nM
- inhibition at 10 µM [20]: 78.8%
- GI50 ([20]; HCT-116, five doses (0.01–100 μM), read-out: GI50): 780 nM
- inhibition at 10 µM [21]: 70.9%
- GI50 ([21]; SF-295, five doses (0.01–100 μM), read-out: GI50): 4940 nM
- inhibition at 10 µM [22]: 94.8%
- GI50 ([22]; LOX IMVI, five doses (0.01–100 μM), read-out: GI50): 2660 nM
- inhibition at 10 µM [23]: 97.4%
- GI50 ([23]; SK-MEL-2, five doses (0.01–100 μM)): 2430 nM
- inhibition at 10 µM [24]: 64.1%
- inhibition at 10 µM [25]: 57.2%
- GI50 ([25]; IGROV1, five doses (0.01–100 μM), read-out: GI50): 2920 nM
- inhibition at 10 µM [26]: 73.7%
- GI50 ([26]; ACHN, five doses (0.01–100 μM), read-out: GI50): 2210 nM
- inhibition at 10 µM [27]: 55.8%
- inhibition at 10 µM [28]: 43.5%
- GI50 ([28]; T-47D, five doses (0.01–100 μM), read-out: GI50): 3940 nM
